These results are taken from patent US7652020B2, “Compounds for the treatment of inflammatory disorders” (Schering Corporation, priority 2004, dated 2010).

In this assay the target is T1, purified catalytic domain of recombinant human TACE (rhTACEc) (Homo sapiens, UniProt P78536, N452Q/S266A).
T1 construct: Residue 215 to 477 with two mutation (S266A and N452Q) and a 6×His tail; 6xHis (C); made in house; host or cells: baculovirus/Hi5 insect cells
Put plainly: TACE kinetic assay: cleavage of internally quenched peptide substrate SPDL-3, fluorescence. Format: biochemical.

Where [1] appears, read: TACE inhibitory activity, class symbols, read-out: Ki.
Where [2] appears, read: TACE, representative compounds, numeric values, read-out: Ki.

Read-outs that look alike come from different tables or passages of the source.

T1 sequence (P78536 215-477 S266A/N452Q): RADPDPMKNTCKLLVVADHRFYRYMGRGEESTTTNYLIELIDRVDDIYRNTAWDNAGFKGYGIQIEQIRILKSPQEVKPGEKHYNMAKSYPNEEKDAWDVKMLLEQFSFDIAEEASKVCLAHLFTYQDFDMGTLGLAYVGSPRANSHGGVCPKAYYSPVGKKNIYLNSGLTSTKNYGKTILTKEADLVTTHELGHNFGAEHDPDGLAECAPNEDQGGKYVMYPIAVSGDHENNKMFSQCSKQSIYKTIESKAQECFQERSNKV

As to `C[C@@H](NC(=O)[C@H](O)[C@@H](O)C(=O)N1C[C@H]2CNC[C@H]2C1)c1ccc(-n2cccn2)cc1` [Compound 2424], under setting [1], the Ki was 100 to 1000 nM.
For the molecule `C[C@@H](NC(=O)[C@H](O)[C@@H](O)C(=O)N1CCNCC1c1ccccc1)c1ccc(-n2cccn2)cc1` (stereo partly shown) [Compound 2414], the inhibition constant (Ki) under setting [1] lay within 20 to 100 nM.
On to `N#Cc1cc(F)ccc1N1CCC(CNC(=O)[C@H](O)[C@@H](O)c2ccccn2)CC1` [Compound 2382], for which the Ki under setting [1] was more than 1000 nM.
On the same count and under the same terms, the result for `CCNc1nc([C@H]2c3ccccc3CCN2C(=O)[C@H](O)[C@@H](O)C(=O)N[C@H](C)c2ccc(-n3cccn3)cc2)cs1` [Compound 2587] reads less than 20 nM.
In the case of `Cn1cc(-c2ccccc2)nc1[C@H](O)[C@@H](O)C(=O)NCC1CCN(c2ccc(F)cc2C#N)CC1` [Compound 2396], the Ki under setting [1] was more than 1000 nM.
For the molecule `C[C@@H](NC(=O)[C@H](O)[C@@H](O)C(=O)N1Cc2cccnc2C1)c1ccc(-n2cccn2)c(OCc2ccccc2)c1` [Compound 2304], the inhibition constant Ki under setting [1] is less than 20 nM.
As for `C[C@@H](NC(=O)[C@H](O)[C@@H](O)C(=O)N1CCC[C@@H]1c1cccc(Cl)c1)c1ccc(-n2cccn2)cc1` [Compound 944], the Ki under setting [1] was less than 20 nM.
For `C[C@@H](NC(=O)[C@H](O)[C@@H](O)C(=O)N1CC=CC1c1cccc(Cl)c1)c1ccc(-n2cccn2)cc1` (stereo partly shown), under setting [2], the Ki amounted to 0.6 nM.
Take `O=C(NCc1ccc(-c2ccccc2OCCC2CCCC2)cc1)[C@H](O)[C@@H](O)C(=O)N1CCCC1` [Compound 2339]: the inhibition constant (Ki) under setting [1] is 20 to 100 nM.
On to `CNc1nc([C@H]2C=CCN2C(=O)[C@H](O)[C@@H](O)C(=O)N[C@H](C)c2ccc(-n3cccn3)cc2)cs1` [drawing 1300], for which the inhibition constant (Ki) under setting [2] amounted to 0.57 nM.
As for `O=C(NCc1ccn(Cc2ccccc2Cl)n1)[C@H](O)[C@@H](O)C(=O)N1CCC[C@@H]1c1cccc(Cl)c1`, the Ki under setting [2] stood at 2.7 nM.
With `C[C@@H](NC(=O)[C@H](O)[C@@H](O)C(=O)N1CCC(=O)N1c1cccc(Cl)c1)c1ccc(-n2cccn2)cc1` [Compound 2494], the Ki under setting [1] was in the range of 100 to 1000 nM.
As to `O=C(NCc1ccc(-c2ccccc2OC(F)(F)F)c[n+]1[O-])[C@H](O)[C@@H](O)C(=O)N1Cc2ccccc2C1` [Compound 2348], the inhibitory constant (Ki) under setting [1] fell in the range of 100 to 1000 nM.
Regarding `Cc1ncc2c(n1)CN(C(=O)[C@H](O)[C@@H](O)C(=O)N[C@H](C)c1ccc(-n3cccn3)cc1)C2` [Compound 2045], the Ki under setting [1] fell in the range of 100 to 1000 nM.
As to `CO[C@@H](C(=O)NCc1ccc(-c2ccc(F)cc2OCCC(C)(C)C)cc1)[C@@H](O)C(=O)N1Cc2cccnc2C1` [Compound 2475], under setting [1], the Ki is 20 to 100 nM.
Same read-out and setting: the result for `C[C@@H](NC(=O)[C@H](O)[C@@H](O)C(=O)N1CCC[C@@H]1c1cc[nH]n1)c1ccc(-n2cccn2)cc1` [Compound 2247] reads less than 20 nM.
Regarding `C[C@@H](NC(=O)[C@H](O)[C@@H](O)C(=O)N1CCc2cc(Cl)c(Cl)cc2C1c1ccccc1)c1ccc(-n2cccn2)cc1` (stereo partly shown) [Compound 2443], the inhibition constant (Ki) under setting [1] was less than 20 nM.
Take `CC(C)Nc1nc([C@H]2CCCN2C(=O)[C@H](O)[C@@H](O)C(=O)N[C@H](C)c2ccc(-n3cccn3)cc2)cs1` [Compound 2257]: the Ki under setting [1] was less than 20 nM.
On to `C[C@@H](NC(=O)[C@H](O)[C@@H](O)C(=O)N1CCC[C@@H]1c1csc(Nc2cccnc2)n1)c1ccc(-n2cccn2)cc1` [Compound 2259], for which the Ki under setting [1] was less than 20 nM.
In the case of `C[C@@H](NC(=O)[C@H](O)[C@@H](O)C(=O)N1CCCCC1c1csc(N)n1)c1ccc(-n2cccn2)cc1` (stereo partly shown) [Compound 2417], the inhibition constant (Ki) under setting [1] was in the range of 20 to 100 nM.
Turning to `C[C@@H](NC(=O)[C@H](O)[C@@H](O)C(=O)N1CCC[C@@H]1c1ccn(-c2ccc(F)cc2)n1)c1ccc(-n2cccn2)cc1` [drawing 1320], the inhibitory constant (Ki) under setting [2] was 2.7 nM.
As for `CC1(C)c2ccccc2CN1C(=O)[C@H](O)[C@@H](O)C(=O)NCC1CCN(c2ccccc2C#N)CC1` [Compound 2233], under setting [1], the inhibitory constant (Ki) is less than 20 nM.
On the same count and under the same terms, the result for `C[C@@H](NC(=O)[C@H](O)[C@@H](O)C(=O)N1CCCCC1c1nccs1)c1ccc(-n2cccn2)cc1` (stereo partly shown) [Compound 2416] reads 20 to 100 nM.
As for `O=C(NC[C@H]1CC[C@H](n2c(C(F)(F)F)nc3ccccc32)CC1)[C@H](O)[C@@H](O)C(=O)N1CCC[C@@H]1c1ccccc1` [Compound 2351], under setting [1], the inhibitory constant (Ki) was less than 20 nM.
Same read-out and setting: in the case of `C[C@@H](NC(=O)[C@H](O)[C@@H](O)C(=O)N1CC(C)(C)C[C@@]1(C)c1cccc(Cl)c1)c1ccc(-n2cccn2)cc1` [Compound 2239] it was more than 1000 nM; in that of `CC#CCOc1cc([C@@H](C)NC(=O)[C@H](O)[C@@H](O)C(=O)N2CCC[C@@H]2c2cccc(Cl)c2)ccc1-n1cccn1` [Compound 2571], less than 20 nM; in that of `C[C@@H](NC(=O)[C@](C)(O)[C@@H](O)C(=O)N1Cc2cccnc2C1)c1ccc(-n2cccn2)cc1` [Compound 2031], less than 20 nM.
As for `CCOc1c(F)cccc1N1CCC(CNC(=O)[C@H](O)[C@@H](O)C(=O)N2CCCC2)CC1` [Compound 2141], the Ki under setting [1] is more than 1000 nM.
Take `C[C@@H](NC(=O)[C@H](O)[C@@H](O)C(=O)N1C[C@H](O)[C@H](O)[C@H]1c1cccc(Cl)c1)c1ccc(-n2cccn2)cc1` [Compound 2267]: the Ki under setting [1] was in the range of 100 to 1000 nM.
For `CCN(C(=O)[C@H](O)[C@@H](O)C(=O)N[C@H](C)c1ccc(-n2cccn2)cc1)C(C)c1cccc(Cl)c1` (stereo partly shown) [Compound 2481], the Ki under setting [1] was in the range of 100 to 1000 nM.
Turning to `CCNc1nc(C2c3ccccc3CN2C(=O)[C@H](O)[C@@H](O)C(=O)N[C@H](C)c2ccc(-n3cccn3)cc2)cs1` (stereo partly shown), under setting [2], the inhibition constant Ki came to 0.16 nM.
As for `CNc1nc([C@H]2c3ccccc3CCN2C(=O)[C@H](O)[C@@H](O)C(=O)N[C@H](C)c2ccc(-n3cccn3)cc2)cs1` [Compound 2586], the Ki under setting [1] is less than 20 nM.
On to `O=C(NCC1CCN(c2cccc(F)c2OC(F)(F)F)CC1)[C@H](O)[C@@H](O)C(=O)N1CCCC1` [Compound 2140], for which, under setting [1], the Ki is more than 1000 nM.
Same read-out and setting: in the case of `C[C@@H](NC(=O)[C@](C)(O)[C@@H](O)C(=O)N1Cc2cccnc2C1)c1ccc(-n2cccn2)c(OCc2ccccc2)c1` [Compound 2357] it was less than 20 nM; in that of `C[C@@H](NC(=O)[C@H](O)[C@@H](O)C(=O)N1CCC[C@@H]1c1csc(N(C)C)n1)c1ccc(-n2cccn2)cc1` [Compound 2260], 20 to 100 nM; in that of `O=C(NCc1ccc(-c2ccccc2)cc1)[C@H](O)[C@@H](O)C(=O)N1Cc2cccnc2C1` [Compound 2037], 20 to 100 nM.
In the case of `C[C@@H](NC(=O)[C@H](O)[C@@H](O)C(=O)N1CC(C)(C)CC1(C)C)c1ccc(-n2cccn2)cc1` [Compound 2254], the Ki under setting [1] was 100 to 1000 nM.
For the molecule `C[C@@H](NC(=O)[C@H](O)[C@@H](O)C(=O)N1CCC[C@@H]1c1csc(N(C)S(C)(=O)=O)n1)c1ccc(-n2cccn2)cc1` [Compound 2582], the inhibition constant (Ki) under setting [1] is less than 20 nM.
On to `CC(C)Nc1nc([C@@H]2c3ccc(Cl)cc3CCN2C(=O)[C@H](O)[C@@H](O)C(=O)N[C@H](C)c2ccc(-n3cccn3)cc2)cs1` [drawing 1324], for which the Ki under setting [2] amounted to 3.3 nM.
Turning to `N#Cc1cc(F)ccc1N1[C@@H]2CC[C@H]1CC(CNC(=O)[C@H](O)[C@@H](O)C(=O)N1CCC[C@@H]1c1ccccc1)C2` (stereo partly shown) [Compound 2148], under setting [1], the Ki fell in the range of 100 to 1000 nM.
`CC#CCOc1cc([C@@H](C)NC(=O)[C@H](O)[C@@H](O)C(=O)N2CC=CC2c2cccc(Cl)c2)ccc1-n1cccn1` (stereo partly shown) [drawing 1314]: the Ki under setting [2] came out at 1.54 nM.
Turning to `N#Cc1cc(F)ccc1N1C[C@@H]2C(CNC(=O)[C@H](O)[C@@H](O)C(=O)N3CCCC3)[C@@H]2C1` (stereo partly shown) [Compound 2147], the inhibitory constant (Ki) under setting [1] lay in the range of 100 to 1000 nM.
`O=C(NCC1CCN(c2ccccc2OC(F)(F)F)CC1)[C@H](O)[C@@H](O)C(=O)N1Cc2cccnc2C1` [Compound 2035]: the inhibition constant Ki under setting [1] was less than 20 nM.
Take `CNc1nc([C@H]2CCCN2C(=O)[C@H](O)[C@@H](O)C(=O)NCC2CCN(c3ccc(F)cc3C#N)CC2)cs1` [Compound 2253]: the Ki under setting [1] is less than 20 nM.
`CC(c1cccc(Cl)c1)N(C(=O)[C@H](O)[C@@H](O)C(=O)N[C@H](C)c1ccc(-n2cccn2)cc1)C1CC1` (stereo partly shown) [Compound 2483]: the Ki under setting [1] is more than 1000 nM.
`Cc1nc2ccccc2n1Cc1ccc(CNC(=O)[C@H](O)[C@@H](O)C(=O)N2Cc3ccccc3C2)s1`: the inhibitory constant (Ki) (Ki (nM), TACE, representative compounds, numeric values) turned out to be 0.5 nM.
